Measurements: PubChem BioAssay (NCI)
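Grown in 96-well plates, cells were treated for 48 hours with each compound at five concentrations. Insufficient inhibition: endpoint recorded as highest concentration tested. GI50: concentration for 50% inhibition of growth. TGI: total growth inhibition.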

Tests used:
Experiment in all cases: DTP human tumour cell line panel, 48 h
T-47D breast = tested on: T-47D breast
COLO 205 colon = tested on: COLO 205 colon
HCT-116 colon = tested on: HCT-116 colon
SW-620 colon = tested on: SW-620 colon
MCF7 breast = tested on: MCF7 breast
EKVX NSCLC = tested on: EKVX NSCLC
M14 melanoma = tested on: M14 melanoma
SK-MEL-2 melanoma = tested on: SK-MEL-2 melanoma
U251 CNS = tested on: U251 CNS
HT29 colon = tested on: HT29 colon
PC-3 prostate = tested on: PC-3 prostate
KM12 colon = tested on: KM12 colon
MDA-MB-435 = tested on: MDA-MB-435
HL-60(TB) leukemia = tested on: HL-60(TB) leukemia
IGROV1 ovarian = tested on: IGROV1 ovarian
NCI-H23 lung = tested on: NCI-H23 lung
K-562 leukemia = tested on: K-562 leukemia
NCI-H460 lung = tested on: NCI-H460 lung
RXF 393 renal = tested on: RXF 393 renal
CAKI-1 renal = tested on: CAKI-1 renal
UACC-62 melanoma = tested on: UACC-62 melanoma
SR leukemia = tested on: SR leukemia
OVCAR-3 ovarian = tested on: OVCAR-3 ovarian
HCT-15 colon = tested on: HCT-15 colon
SK-MEL-28 melanoma = tested on: SK-MEL-28 melanoma
A498 renal = tested on: A498 renal
SK-MEL-5 melanoma = tested on: SK-MEL-5 melanoma
CCRF-CEM leukemia = tested on: CCRF-CEM leukemia
OVCAR-5 ovarian = tested on: OVCAR-5 ovarian
HCC-2998 colon = tested on: HCC-2998 colon
MOLT-4 leukemia = tested on: MOLT-4 leukemia
HOP-62 NSCLC = tested on: HOP-62 NSCLC
SN12C renal = tested on: SN12C renal
OVCAR-4 ovarian = tested on: OVCAR-4 ovarian
ACHN renal = tested on: ACHN renal
NCI/ADR-RES ovarian = tested on: NCI/ADR-RES ovarian
SF-295 CNS = tested on: SF-295 CNS
OVCAR-8 ovarian = tested on: OVCAR-8 ovarian
HS 578T breast = tested on: HS 578T breast
MALME-3M melanoma = tested on: MALME-3M melanoma
TK-10 renal = tested on: TK-10 renal
786-0 renal = tested on: 786-0 renal
A549 NSCLC = tested on: A549 NSCLC
RPMI-8226 leukemia = tested on: RPMI-8226 leukemia
NCI-H522 lung = tested on: NCI-H522 lung
SF-539 CNS = tested on: SF-539 CNS
SK-OV-3 ovarian = tested on: SK-OV-3 ovarian
SF-268 CNS = tested on: SF-268 CNS
MDA-MB-231 breast = tested on: MDA-MB-231 breast
HOP-92 NSCLC = tested on: HOP-92 NSCLC
UO-31 renal = tested on: UO-31 renal
SNB-19 CNS = tested on: SNB-19 CNS
LOX IMVI melanoma = tested on: LOX IMVI melanoma
UACC-257 melanoma = tested on: UACC-257 melanoma
DU-145 prostate = tested on: DU-145 prostate
NCI-H226 lung = tested on: NCI-H226 lung
SNB-75 CNS = tested on: SNB-75 CNS
BT-549 breast = tested on: BT-549 breast
MDA-N = tested on: MDA-N

## COc1ccc(-n2nc(C)c3c(Nc4ccc(NC(=O)Nc5cccc(C(F)(F)F)c5)cc4)ncnc32)cc1
T-47D breast
  GI50: 1.64 µM
  TGI: 4.84 µM
COLO 205 colon
  GI50: 1.65 µM
  TGI: 3.49 µM
HCT-116 colon
  GI50: 1.62 µM
  TGI: 3.46 µM
SW-620 colon
  GI50: 2.14 µM
  TGI: 5.18 µM
MCF7 breast
  GI50: 2.05 µM
  TGI: 5.57 µM
EKVX NSCLC
  GI50: 1.93 µM
  TGI: 4.34 µM
M14 melanoma
  GI50: 1.54 µM
  TGI: 3.36 µM
SK-MEL-2 melanoma
  GI50: 2.04 µM
  TGI: 4.01 µM
U251 CNS
  GI50: 1.08 µM
  TGI: 2.35 µM
HT29 colon
  GI50: 1.77 µM
  TGI: 3.96 µM
PC-3 prostate
  GI50: 1.49 µM
  TGI: 3.9 µM
KM12 colon
  GI50: 1.63 µM
  TGI: 3.76 µM
MDA-MB-435
  GI50: 1.8 µM
  TGI: 3.78 µM
HL-60(TB) leukemia
  GI50: 2.31 µM
  TGI: 5.51 µM
IGROV1 ovarian
  GI50: 2 µM
  TGI: 4.18 µM
NCI-H23 lung
  GI50: 1.68 µM
  TGI: 3.68 µM
K-562 leukemia
  GI50: 2.18 µM
  TGI: 7.22 µM
NCI-H460 lung
  GI50: 1.98 µM
  TGI: 4.12 µM
RXF 393 renal
  GI50: 0.846 µM
  TGI: 2.34 µM
CAKI-1 renal
  GI50: 1.46 µM
  TGI: 2.96 µM
UACC-62 melanoma
  GI50: 1.76 µM
  TGI: 3.46 µM
SR leukemia
  GI50: 2.54 µM
  TGI: 9.38 µM
OVCAR-3 ovarian
  GI50: 1.74 µM
  TGI: 3.92 µM
HCT-15 colon
  GI50: 1.46 µM
  TGI: 3.27 µM
SK-MEL-28 melanoma
  GI50: 1.85 µM
  TGI: 4.76 µM
A498 renal
  GI50: 1.99 µM
  TGI: 4.45 µM
SK-MEL-5 melanoma
  GI50: 1.75 µM
  TGI: 3.21 µM
CCRF-CEM leukemia
  GI50: 2.3 µM
  TGI: 8.76 µM
OVCAR-5 ovarian
  GI50: 1.76 µM
  TGI: 4.12 µM
HCC-2998 colon
  GI50: 2.24 µM
  TGI: 5.31 µM
MOLT-4 leukemia
  GI50: 2.01 µM
  TGI: 6.16 µM
HOP-62 NSCLC
  GI50: 1.73 µM
  TGI: 3.45 µM
SN12C renal
  GI50: 1.79 µM
  TGI: 3.86 µM
OVCAR-4 ovarian
  GI50: 2.1 µM
  TGI: 5.27 µM
ACHN renal
  GI50: 1.6 µM
  TGI: 3.43 µM
NCI/ADR-RES ovarian
  GI50: 1.81 µM
  TGI: 4.72 µM
SF-295 CNS
  GI50: 1.67 µM
  TGI: 3.3 µM
OVCAR-8 ovarian
  GI50: 1.93 µM
  TGI: 4.39 µM
HS 578T breast
  GI50: 1.66 µM
  TGI: 4.17 µM
MALME-3M melanoma
  GI50: 1.59 µM
  TGI: 3.31 µM
TK-10 renal
  GI50: 2.39 µM
  TGI: 6.6 µM
786-0 renal
  GI50: 1.56 µM
  TGI: 3.03 µM
A549 NSCLC
  GI50: 1.65 µM
  TGI: 3.45 µM
RPMI-8226 leukemia
  GI50: 1.78 µM
  TGI: 4.69 µM
NCI-H522 lung
  GI50: 1.6 µM
  TGI: 3.8 µM
SF-539 CNS
  GI50: 1.28 µM
  TGI: 2.66 µM
SK-OV-3 ovarian
  GI50: 2.13 µM
  TGI: 5.3 µM
SF-268 CNS
  GI50: 2.14 µM
  TGI: 5.51 µM
MDA-MB-231 breast
  GI50: 1.46 µM
  TGI: 3.14 µM
HOP-92 NSCLC
  GI50: 1.59 µM
  TGI: 3.31 µM
UO-31 renal
  GI50: 1.51 µM
  TGI: 2.86 µM
SNB-19 CNS
  GI50: 1.95 µM
  TGI: 4.65 µM
LOX IMVI melanoma
  GI50: 1.3 µM
  TGI: 2.65 µM
UACC-257 melanoma
  GI50: 1.88 µM
  TGI: 4.18 µM
DU-145 prostate
  GI50: 1.97 µM
  TGI: 4.54 µM
NCI-H226 lung
  GI50: 1.84 µM
  TGI: 4.2 µM
SNB-75 CNS
  GI50: 0.87 µM
  TGI: 3.03 µM
BT-549 breast
  GI50: 1.97 µM
  TGI: 5.32 µM

## Cc1cc(C)c2c(=N)c3ccccc3n(CCCCCCCCn3c4ccccc4c(=N)c4c(C)cc(C)nc43)c2n1
T-47D breast
  TGI: 3.23 µM
HCT-116 colon
  TGI: 1.59 µM
EKVX NSCLC
  TGI: 2.91 µM
M14 melanoma
  TGI: 3.09 µM
SK-MEL-2 melanoma
  TGI: 3.03 µM
HT29 colon
  TGI: 1.16 µM
PC-3 prostate
  TGI: 2.86 µM
KM12 colon
  TGI: 1.42 µM
IGROV1 ovarian
  TGI: 2.71 µM
K-562 leukemia
  TGI: > 100 µM
CAKI-1 renal
  TGI: 3.45 µM
OVCAR-3 ovarian
  TGI: 3.27 µM
SK-MEL-28 melanoma
  TGI: 3.02 µM
A498 renal
  TGI: 2.94 µM
SK-MEL-5 melanoma
  TGI: 3.23 µM
OVCAR-5 ovarian
  TGI: 3.69 µM
SN12C renal
  TGI: 2.94 µM
ACHN renal
  TGI: 2.91 µM
OVCAR-8 ovarian
  TGI: 3.05 µM
MALME-3M melanoma
  TGI: 3.11 µM
MDA-N
  TGI: 2.78 µM
TK-10 renal
  TGI: 4.72 µM
786-0 renal
  TGI: 2.28 µM
SK-OV-3 ovarian
  TGI: 3.18 µM
HOP-92 NSCLC
  TGI: 2.87 µM
UO-31 renal
  TGI: 2.81 µM
SNB-19 CNS
  TGI: 1.85 µM
LOX IMVI melanoma
  TGI: 2.61 µM
UACC-257 melanoma
  TGI: 3.01 µM
DU-145 prostate
  TGI: 3.07 µM
NCI-H226 lung
  TGI: 3.38 µM
SNB-75 CNS
  TGI: 2.18 µM
BT-549 breast
  TGI: 3.29 µM

## COc1c(C(=O)/C(=N/Nc2ccc(C(=O)O)cc2)C(C)=O)c(O)cc2occc12
T-47D breast
  TGI: > 100 µM
COLO 205 colon
  TGI: > 100 µM
HCT-116 colon
  TGI: > 100 µM
SW-620 colon
  TGI: > 100 µM
MCF7 breast
  TGI: > 100 µM
EKVX NSCLC
  TGI: > 100 µM
M14 melanoma
  TGI: > 100 µM
SK-MEL-2 melanoma
  TGI: > 100 µM
U251 CNS
  TGI: > 100 µM
HT29 colon
  TGI: > 100 µM
PC-3 prostate
  TGI: > 100 µM
KM12 colon
  TGI: > 100 µM
MDA-MB-435
  TGI: > 100 µM
HL-60(TB) leukemia
  TGI: > 100 µM
IGROV1 ovarian
  TGI: > 100 µM
NCI-H23 lung
  TGI: > 100 µM
K-562 leukemia
  TGI: > 100 µM
NCI-H460 lung
  TGI: > 100 µM
RXF 393 renal
  TGI: > 100 µM
CAKI-1 renal
  TGI: > 100 µM
UACC-62 melanoma
  TGI: > 100 µM
SR leukemia
  TGI: > 100 µM
OVCAR-3 ovarian
  TGI: > 100 µM
HCT-15 colon
  TGI: > 100 µM
SK-MEL-28 melanoma
  TGI: > 100 µM
SK-MEL-5 melanoma
  TGI: > 100 µM
CCRF-CEM leukemia
  TGI: > 100 µM
OVCAR-5 ovarian
  TGI: > 100 µM
HCC-2998 colon
  TGI: > 100 µM
MOLT-4 leukemia
  TGI: > 100 µM
HOP-62 NSCLC
  TGI: > 100 µM
SN12C renal
  TGI: > 100 µM
ACHN renal
  TGI: > 100 µM
NCI/ADR-RES ovarian
  TGI: > 100 µM
SF-295 CNS
  TGI: > 100 µM
OVCAR-8 ovarian
  TGI: > 100 µM
HS 578T breast
  TGI: > 100 µM
MALME-3M melanoma
  TGI: > 100 µM
MDA-N
  TGI: > 100 µM
TK-10 renal
  TGI: > 100 µM
786-0 renal
  TGI: > 100 µM
A549 NSCLC
  TGI: > 100 µM
RPMI-8226 leukemia
  TGI: > 100 µM
NCI-H522 lung
  TGI: > 100 µM
SF-539 CNS
  TGI: > 100 µM
SK-OV-3 ovarian
  TGI: > 100 µM
SF-268 CNS
  TGI: > 100 µM
MDA-MB-231 breast
  TGI: > 100 µM
HOP-92 NSCLC
  TGI: > 100 µM
UO-31 renal
  TGI: > 100 µM
SNB-19 CNS
  TGI: > 100 µM
LOX IMVI melanoma
  TGI: > 100 µM
UACC-257 melanoma
  TGI: > 100 µM
DU-145 prostate
  TGI: > 100 µM
NCI-H226 lung
  TGI: > 100 µM
SNB-75 CNS
  TGI: > 100 µM
